Data taken from the supplement of paper PMC10307832.

How the values were obtained:
Experiment in all cases: relative viability (nuclei count vs DMSO), 5 days (fraction); higher = more cells survive
[1] = compound: CC1=C(C=CC(=C1)[N+](=O)[O-])NS(=O)(=O)C2=C(C=CC(=C2)Cl)Cl [FH535] + COc1cc2c(Oc3ccc(NC(=O)C4(C(=O)Nc5ccc(F)cc5)CC4)cc3F)ccnc2cc1OCCCN1CCOCC1 [Foretinib] (partner 0.25 µM)
Outline: (§1)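 One day after seeding in 1536-well plates, lung cancer cell lines were dosed by pin tool. Dosing was either single-drug or a fixed anchor-drug dose plus five library-drug doses (not always all listed) in √10 steps. After 5 days, nuclei were stained in one fix-and-stain step and counted on 4× images, and relative viability is the nuclei count of treated wells over that of vehicle wells, given as the median of duplicate plates.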

[2] = compound: CC1=C(C=CC(=C1)[N+](=O)[O-])NS(=O)(=O)C2=C(C=CC(=C2)Cl)Cl [FH535] + N=C(N)NC(=N)NCCc1ccccc1 [Phenformin] (partner 250 µM)
Outline: as §1

[3] = compound: CC1=C(C=CC(=C1)[N+](=O)[O-])NS(=O)(=O)C2=C(C=CC(=C2)Cl)Cl [FH535] + C[C@@H](Oc1cc(-c2cnn(C3CCNCC3)c2)cnc1N)c1c(Cl)ccc(F)c1Cl [Crizotinib] (partner 1 µM)
Outline: as §1

[4] = compound: CC1=C(C=CC(=C1)[N+](=O)[O-])NS(=O)(=O)C2=C(C=CC(=C2)Cl)Cl [FH535] + C[C@]1(O)C[C@@H](c2nc(-c3ccc4ccc(-c5ccccc5)nc4c3)c3c(N)nccn32)C1 [Linsitinib] (partner 1 µM)
Outline: as §1

[5] = compound: CC1=C(C=CC(=C1)[N+](=O)[O-])NS(=O)(=O)C2=C(C=CC(=C2)Cl)Cl [FH535]
Outline: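 Vehicle-anchored 1536-well plates of lung cancer cell lines, held overnight at 37 °C, were pinned with five library-drug doses (not always all listed) spaced by √10. No medium change followed over the next 5 days, after which the cells were fixed, permeabilised and Hoechst-stained together and imaged at 4×. Nuclei were counted with MetaXpress, and viability is treated-well nuclei over vehicle-well nuclei, taken as a median across plates. Plates passed with control CV below 25% and at least one doubling.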

Cell Line	relative viability ([1]; first compound 0.04 µM)	relative viability ([1]; first compound 0.1265 µM)	relative viability ([1]; first compound 0.4 µM)	relative viability ([1]; first compound 1.265 µM)	relative viability ([2]; first compound 0.04 µM)	relative viability ([2]; first compound 0.1265 µM)	relative viability ([2]; first compound 0.4 µM)	relative viability ([2]; first compound 1.265 µM)	relative viability ([3]; first compound 0.04 µM)	relative viability ([3]; first compound 0.1265 µM)	relative viability ([3]; first compound 0.4 µM)	relative viability ([3]; first compound 1.265 µM)	relative viability ([4]; first compound 0.04 µM)	relative viability ([4]; first compound 0.1265 µM)	relative viability ([4]; first compound 0.4 µM)	relative viability ([4]; first compound 1.265 µM)	relative viability ([5]; 0.04 µM)	relative viability ([5]; 0.1265 µM)	relative viability ([5]; 0.4 µM)	relative viability ([5]; 1.265 µM)
NCI-H1993	0.76	0.753	0.741	0.575	0.415	0.495	0.533	0.524	0.809	0.911	0.589	0.609	0.703	0.734	0.673	0.745	0.902	0.967	0.838	0.635
HARA	0.814	0.969	0.88	0.477	0.398	0.368	0.269	0.205	1.06	1.08	0.929	0.52	0.774	0.889	1.03	0.584	0.855	0.876	0.779	0.711
NCI-H520	0.684	0.781	0.574	0.875	0.36	0.611	0.55	0.429	0.716	0.893	0.803	0.754	0.982	0.959	0.915	0.873	0.963	1.04	0.934	0.915
EKVX	0.792	0.629	0.744	0.587	0.238	0.223	0.173	0.153	0.824	1.07	0.998	0.609	1.03	1.05	0.967	0.854	0.987	0.951	0.905	0.773
NCI-H1755	0.862	0.894	0.874	0.854	0.539	0.627	0.558	0.494	0.931	0.859	0.801	0.776	0.968	0.996	0.912	0.919	1	1.05	0.944	0.953
NCI-H2087	1.05	1.07	0.916	0.766	0.425	0.398	0.286	0.155	0.96	0.774	0.765	0.415	0.98	0.994	0.87	0.512	1.05	1.01	0.845	0.683
H3255	0.817	0.803	0.794	0.496	0.31	0.423	0.374	0.32	0.896	0.806	0.853	0.705	0.87	1.04	0.884	0.727	0.953	0.945	0.955	0.745
NCI-H1944	0.855	0.922	0.882	0.857	0.17	0.205	0.161	0.109		1.18	0.962	0.907		1.31	1.22	1.05	0.862	0.993	0.928	0.818
NCI-H2347	0.792	0.865	1.03	0.701	0.409	0.332	0.425	0.27	0.677	0.617	0.807	0.649	1.02	1.05	0.902	0.812	0.986	0.974	1.02	0.842
HCC-827	1.03	1.07	0.975	0.587	0.407	0.387	0.383	0.313	0.924	0.872	0.904	0.564	0.89	0.937	0.863	0.714	0.956	1.04	0.936	0.767
HCC-78	0.565	0.561	0.608	0.51	0.626	0.783	0.63	0.592	0.3	0.373	0.342	0.311	0.456	0.557	0.558	0.527	0.927	1	0.951	0.865
NCI-H23	0.469	1.07	0.953	0.636	0.786	0.739	0.655	0.555		0.555	0.584	0.581		0.633	0.628	0.567	0.635	1.01	0.967	0.687
NCI-H1975	0.889	0.973	0.936	0.789	0.384	0.402	0.35	0.256	1.06	1.08	0.948	0.842	0.95	0.986	0.925	0.784	0.919	0.965	0.87	0.82
NCI-H1563	0.909	0.825	0.994	0.874	0.665	0.669	0.644	0.563	0.871	0.948	0.88	0.757	1.2	1.07	1.25	1.04	0.954	0.892	0.995	0.771
COR-L23	0.936	0.818	0.781	0.517	0.423	0.486	0.342	0.217	0.626	0.656	0.57	0.434	0.926	0.889	0.722	0.581	0.98	1.03	0.842	0.573
CAL-12T	1.15	1.11	1.04	0.577	0.515	0.514	0.403	0.316	0.817	0.691	0.719	0.556	0.871	0.796	0.712	0.598	0.989	0.977	0.819	0.591
UMC-11	0.967	1.13	1.03	0.88	0.289	0.378	0.28	0.211	0.639	0.583	0.582	0.626	1.05	1.1	0.962	0.805	0.94	0.877	0.9	0.911
NCI-H2126	0.955	1.31	1.06	0.601	0.525	0.53	0.457	0.348	0.976	0.984	0.941	0.683	0.746	0.719	0.705	0.619	0.961	1.02	0.888	0.67
